In patent publication US11939334B2, “Substituted pyrimido[4,5-b][1,4]diazepines as PLK1 degradation inducers” (UPPTHERA, INC., priority 2021, dated 2024):

Experiments:
MRC-5 cell line = test: Cell viability assay for MRC-5 cell line; details: for IC50: Homo sapiens, MRC5, 120 h, read-out: Activity: IC50 value (nM) to MRC-5 cell line
Experimental: Cell Viability Assay for MRC-5 Cell Line
(1) Culture of MRC-5 Cell Line
The MRC-5 cell line was purchased from Korea Cell Line Bank (KCLB), Seoul, Korea. Passage of cultured cells was maintained within P15.
(2) Treatment of Compounds of the Present Invention
6×10^3 cells were seeded for each well of a 96-well plate (SPL), and the cells were cultured in total volume of 150 μL.
Each well was mixed with a medium and treated, and the volume was set to 50 μL, so that the total volume of each well was 200 μL. Then, it was cultured in 37° C.
The following compounds were used as comparative examples, and the cell viability assay was performed in the same manner as in the compounds of Examples.
(3) Cytotoxicity Experiment
After treating EZ-Cytox (DOGEN, Cat. NO. EZ-3000, Lot. No. DLS2112) 20 μL in each well of completely cultured plate, it was cultured in 37° C. CO2 incubator for 4 hours. […] The data were converted into graphs using the Prism (ver. 9) program.

H526 cell line = test: Cell viability assay for H526 cell line; assay type: cell-based; details: Homo sapiens, NCI-H526, 120 h; H526 cells, 5 days, EZ-Cytox, 0.46-3000 nM
Outline: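 NCI-H526 cells exposed to compounds for 5 days in a CO2 incubator; viability read as absorbance at 450 nm after 3 min plate shaking; IC50 derived from treatment response.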

PLK1 = target: T1, PLK1 (Homo sapiens, UniProt P53350); test: Luciferase assay for PLK1 in HeLa LgBit (Plk1-HiBit KI) cell line; assay type: cell-based; details: 300 nM compound, luminescence after 9 hours
T1 construct: endogenous in cells; host or cells: HeLa cells stably expressing LgBit, with CRISPR/Cas9 knock-in of HiBit at the endogenous PLK1 locus
Outline: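 HeLa LgBit cells with endogenous Plk1 C-terminally HiBiT-tagged by CRISPR knock-in were synchronized by 2 mM thymidine block for 24 h, then released and seeded. After 18 h, Endurazine was added and compounds were dosed at 300 nM. Luminescence was tracked in real time; activity is the ratio to DMSO.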

T1 sequence (P53350 whole entry): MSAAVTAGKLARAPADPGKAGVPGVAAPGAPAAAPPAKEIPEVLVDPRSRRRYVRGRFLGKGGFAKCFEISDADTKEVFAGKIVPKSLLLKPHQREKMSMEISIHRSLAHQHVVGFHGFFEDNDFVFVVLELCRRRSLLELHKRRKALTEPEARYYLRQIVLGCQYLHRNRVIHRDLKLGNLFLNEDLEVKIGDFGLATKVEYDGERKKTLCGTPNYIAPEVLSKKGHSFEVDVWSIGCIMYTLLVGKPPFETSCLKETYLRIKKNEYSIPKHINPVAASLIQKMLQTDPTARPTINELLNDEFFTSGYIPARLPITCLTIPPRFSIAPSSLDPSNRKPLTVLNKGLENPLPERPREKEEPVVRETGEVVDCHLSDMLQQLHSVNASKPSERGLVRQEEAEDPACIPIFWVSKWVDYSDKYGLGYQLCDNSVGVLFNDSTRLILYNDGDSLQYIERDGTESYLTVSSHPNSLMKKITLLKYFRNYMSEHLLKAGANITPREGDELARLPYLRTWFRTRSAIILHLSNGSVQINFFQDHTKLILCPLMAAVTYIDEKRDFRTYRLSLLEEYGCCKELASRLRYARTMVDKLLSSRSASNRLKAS

Compound | cytotoxicity in normal cell line (in words) (MRC-5 cell line; MRC-5 cell line) | IC50 (MRC-5 cell line) | IC50 (H526 cell line) | Activity: ratio of the luminescence value of each Exemplary Compound treatment group to DMSO treatment group (PLK1)
CC[C@@H]1C(=O)N(C)c2cnc(Nc3ccc(C(=O)NCCOCCOCCNc4cccc5c4C(=O)N(C4CCC(=O)NC4=O)C5=O)cc3OC)nc2N1C1CCCC1 (stereo partly shown) [Comparative Compound 1, reference compound] | high level of cytotoxicity in normal cell line |  |  | 
COc1cc(C(=O)NC2CC(N(C)CCC3CCN(c4cccc(C5CCC(=O)NC5=O)c4)CC3)C2)ccc1Nc1ncc2c(n1)N(C(C)C)CC1(CC1)C(=O)N2C (stereo not shown) [Compound 6, N-(3-((2-(1-(3-(2,6-dioxopiperidin-3-yl)phenyl)piperidin-4-yl)ethyl)(methyl)amino)cyclobutyl)-4-((9′-isopropyl-5′-methyl-6′-oxo-5′,6′,8′,9′-tetrahydrospiro[cyclopropane-1,7′-pyrimido[4,5-b][1,4]diazepin]-2′-yl)amino)-3-methoxybenzamide] |  | 12300 nM | < 0.4 µM | ++ (++ <0.6)
COc1cc(C(=O)NC2CCC(N(C)CC3CCN(c4ccc(C5CCC(=O)NC5=O)cc4F)CC3)CC2)ccc1Nc1ncc2c(n1)N(C(C)C)CC(F)(F)C(=O)N2C (stereo not shown) [Compound 7, 4-((7,7-difluoro-9-isopropyl-5-methyl-6-oxo-6,7,8,9-tetrahydro-5H-pyrimido[4,5-b][1,4]diazepin-2-yl)amino)-N-((1r,4r)-4-(((1-(4-(2,6-dioxopiperidin-3-yl)-2-fluorophenyl)piperidin-4-yl)methyl)(methyl)amino)cyclohexyl)-3-methoxybenzamide] |  | 13000 nM | < 0.03 µM | +++ (+++: <0.3)
COc1cc(C(=O)N[C@H]2CC[C@H](N(C)CCN3CCN(c4ccc(C5CCC(=O)NC5=O)cc4F)CC3)CC2)ccc1Nc1ncc2c(n1)N(C(C)C)CC(F)(F)C(=O)N2C (stereo partly shown) [Compound 9, 4-((7,7-difluoro-9-isopropyl-5-methyl-6-oxo-6,7,8,9-tetrahydro-5H-pyrimido[4,5-b][1,4]diazepin-2-yl)amino)-N-((1r,4r)-4-((2-(4-(4-(2,6-dioxopiperidin-3-yl)-2-fluorophenyl)piperazin-1-yl)ethyl)(methyl)amino)cyclohexyl)-3-methoxybenzamide] |  | 16600 nM | < 0.05 µM | ++ (++ <0.6)
COc1cc(C(=O)N[C@H]2CC[C@H](N(C)CCN3CCN(c4c(F)cc(C5CCC(=O)NC5=O)cc4F)CC3)CC2)ccc1Nc1ncc2c(n1)N(C(C)C)CC(F)(F)C(=O)N2C (stereo partly shown) [Compound 10, 4-((7,7-difluoro-9-isopropyl-5-methyl-6-oxo-6,7,8,9-tetrahydro-5H-pyrimido[4,5-b][1,4]diazepin-2-yl)amino)-N-((1r,4r)-4-((2-(4-(4-(2,6-dioxopiperidin-3-yl)-2,6-difluorophenyl)piperazin-1-yl)ethyl)(methyl)amino)cyclohexyl)-3-methoxybenzamide] |  | 15600 nM | < 0.05 µM | ++ (++ <0.6)
COc1cc(C(=O)NC2CCN(CC3CN(c4ccc(C5CCC(=O)NC5=O)cc4F)C3)CC2)ccc1Nc1ncc2c(n1)N(C(C)C)CC(F)(F)C(=O)N2C (stereo not shown) [Compound 12, 4-((7,7-difluoro-9-isopropyl-5-methyl-6-oxo-6,7,8,9-tetrahydro-5H-pyrimido[4,5-b][1,4]diazepin-2-yl)amino)-N-(1-((1-(4-(2,6-dioxopiperidin-3-yl)-2-fluorophenyl)azetidin-3-yl)methyl)piperidin-4-yl)-3-methoxybenzamide] |  | 24600 nM | < 0.05 µM | ++ (++ <0.6)
COc1cc(C(=O)NC2CC3(CCN(CC4CCN(c5ccc(C6CCC(=O)NC6=O)cc5F)CC4)CC3)C2)c(F)cc1Nc1ncc2c(n1)N(C(C)C)CC(F)(F)C(=O)N2C (stereo not shown) [Compound 14, 4-((7,7-difluoro-9-isopropyl-5-methyl-6-oxo-6,7,8,9-tetrahydro-5H-pyrimido[4,5-b][1,4]diazepin-2-yl)amino)-N-(7-((1-(4-(2,6-dioxopiperidin-3-yl)-2-fluorophenyl)piperidin-4-yl)methyl)-7-azaspiro[3.5]nonan-2-yl)-2-fluoro-5-methoxybenzamide] |  | 14700 nM | < 0.05 µM | ++ (++ <0.6)
COc1cc(C(=O)NC2CC3(CCN(CC4CCN(c5c(F)cc(C6CCC(=O)NC6=O)cc5F)CC4)CC3)C2)ccc1Nc1ncc2c(n1)N(C(C)C)CC(F)(F)C(=O)N2C (stereo not shown) [Compound 15, 4-((7,7-difluoro-9-isopropyl-5-methyl-6-oxo-6,7,8,9-tetrahydro-5H-pyrimido[4,5-b][1,4]diazepin-2-yl)amino)-N-(7-((1-(4-(2,6-dioxopiperidin-3-yl)-2,6-difluorophenyl)piperidin-4-yl)methyl)-7-azaspiro[3.5]nonan-2-yl)-3-methoxybenzamide] |  | 17700 nM | < 0.03 µM | ++ (++ <0.6)
COc1cc(C(=O)NC2CC3(CCN(CC4CCN(c5ccc(C6CCC(=O)NC6=O)cc5)CC4)CC3)C2)ccc1Nc1ncc2c(n1)N(C(C)C)CC(F)(F)C(=O)N2C (stereo not shown) [Compound 19, 4-((7,7-difluoro-9-isopropyl-5-methyl-6-oxo-6,7,8,9-tetrahydro-5H-pyrimido[4,5-b][1,4]diazepin-2-yl)amino)-N-(7-((1-(4-(2,6-dioxopiperidin-3-yl)phenyl)piperidin-4-yl)methyl)-7-azaspiro[3.5]nonan-2-yl)-3-methoxybenzamide] |  | 13100 nM | < 0.03 µM | ++ (++ <0.6)
Cc1cc(C(=O)NC2CC3(CCN(CC4CCN(c5ccc(C6CCC(=O)NC6=O)cc5F)CC4)CC3)C2)c(F)cc1Nc1ncc2c(n1)N(C(C)C)CC(F)(F)C(=O)N2C (stereo not shown) [Compound 21, 4-((7,7-difluoro-9-isopropyl-5-methyl-6-oxo-6,7,8,9-tetrahydro-5H-pyrimido[4,5-b][1,4]diazepin-2-yl)amino)-N-(7-((1-(4-(2,6-dioxopiperidin-3-yl)-2-fluorophenyl)piperidin-4-yl)methyl)-7-azaspiro[3.5]nonan-2-yl)-2-fluoro-5-methylbenzamide] |  | 12600 nM | < 0.05 µM | ++ (++ <0.6)
COc1cc(C(=O)NC2CCN(C3CC4(CCN(c5ccc(C6CCC(=O)NC6=O)cc5F)CC4)C3)CC2)ccc1Nc1ncc2c(n1)N(C(C)C)CC(F)(F)C(=O)N2C (stereo not shown) [Compound 39, 4-((7,7-difluoro-9-isopropyl-5-methyl-6-oxo-6,7,8,9-tetrahydro-5H-pyrimido[4,5-b][1,4]diazepin-2-yl)amino)-N-(1-(7-(4-(2,6-dioxopiperidin-3-yl)-2-fluorophenyl)-7-azaspiro[3.5]nonan-2-yl)piperidin-4-yl)-3-methoxybenzamide] |  | 5800 nM | < 0.05 µM | ++ (++ <0.6)
